One data set concerns the target JAK3 (Homo sapiens (Human), UniProt P52333). Put plainly: Biochemical JAK and Tyk2 Kinase Assays (LanthaScreen), JAK3. The settings on record: 1.6 μM ATP (Km); pIC50 converted to pKi by Cheng-Prusoff.
The nature of data set [1]: Solubility Assay in Organic Excipients. The settings on record: maximum upper limit 20,000 μM; for Solubility in MCT (mg/mL): medium chain triglycerides (MCT).
For data set [2], the system named is IL-2 stimulated pSTAT5 in Tall-1 T cells. Briefly: Inhibition of IL-2 Stimulated pSTAT5 in Tall-1 T Cells. Particulars: Tall-1 human T cell line, IL-2 300 ng/mL, AlphaLisa. The data set is classed as cell-based. Put shortly:
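Cells preincubated with compound 1 hour at 37° C, then stimulated with IL-2 (final 300 ng/mL) for 30 minutes. After lysis, pSTAT5 (Tyr694/699) read by AlphaLISA luminescence. IC50 from inhibition curves, reported as pIC50 (mean±SD).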
A general note: In Alpha technology, singlet oxygen from a donor bead excites a nearby acceptor bead.

For a further data set, the target named is JAK1 (Homo sapiens (Human), UniProt P23458). Briefly: Biochemical JAK and Tyk2 Kinase Assays (LanthaScreen), JAK1. The settings on record: 25 μM ATP (Km); pIC50 converted to pKi by Cheng-Prusoff. A general note: In TR-FRET formats the signal depends on donor and acceptor labels being close together.
The next data set is described as follows: Aqueous Solubility Assay. Particulars: PBS buffer pH 7.4; maximum upper limit 1,000 μM.

The structures appear in SMILES notation.

JAK1, sequence (P23458 whole entry): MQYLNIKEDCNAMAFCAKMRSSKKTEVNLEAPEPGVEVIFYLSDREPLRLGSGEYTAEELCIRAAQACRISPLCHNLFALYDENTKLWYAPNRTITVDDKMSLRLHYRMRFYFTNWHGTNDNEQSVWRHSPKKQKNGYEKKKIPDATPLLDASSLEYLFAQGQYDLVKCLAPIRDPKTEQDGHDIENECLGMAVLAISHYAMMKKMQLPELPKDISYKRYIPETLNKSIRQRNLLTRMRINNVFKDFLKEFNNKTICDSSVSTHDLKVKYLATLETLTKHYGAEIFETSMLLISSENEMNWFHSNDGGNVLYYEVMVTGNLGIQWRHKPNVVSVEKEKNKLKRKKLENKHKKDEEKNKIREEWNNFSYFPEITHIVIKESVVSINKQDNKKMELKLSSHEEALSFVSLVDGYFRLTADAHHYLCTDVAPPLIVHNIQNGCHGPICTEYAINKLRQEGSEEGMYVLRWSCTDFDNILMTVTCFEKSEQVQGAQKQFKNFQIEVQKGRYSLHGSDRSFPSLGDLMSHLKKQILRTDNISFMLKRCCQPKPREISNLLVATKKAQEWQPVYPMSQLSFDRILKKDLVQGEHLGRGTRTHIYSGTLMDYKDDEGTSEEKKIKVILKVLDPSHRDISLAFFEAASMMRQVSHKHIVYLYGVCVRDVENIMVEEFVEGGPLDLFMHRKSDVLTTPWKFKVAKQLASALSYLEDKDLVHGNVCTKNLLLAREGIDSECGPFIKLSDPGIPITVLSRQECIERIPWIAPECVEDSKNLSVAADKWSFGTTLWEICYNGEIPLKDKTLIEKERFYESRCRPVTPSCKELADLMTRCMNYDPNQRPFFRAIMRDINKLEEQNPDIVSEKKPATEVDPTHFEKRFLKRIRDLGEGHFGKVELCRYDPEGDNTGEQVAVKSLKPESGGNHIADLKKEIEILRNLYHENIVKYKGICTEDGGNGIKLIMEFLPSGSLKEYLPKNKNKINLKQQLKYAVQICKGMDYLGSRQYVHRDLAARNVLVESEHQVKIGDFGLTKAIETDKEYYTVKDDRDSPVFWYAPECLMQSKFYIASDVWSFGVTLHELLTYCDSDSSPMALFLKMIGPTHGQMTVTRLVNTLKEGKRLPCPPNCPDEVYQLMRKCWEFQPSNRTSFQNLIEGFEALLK
JAK3, sequence (P52333 whole entry): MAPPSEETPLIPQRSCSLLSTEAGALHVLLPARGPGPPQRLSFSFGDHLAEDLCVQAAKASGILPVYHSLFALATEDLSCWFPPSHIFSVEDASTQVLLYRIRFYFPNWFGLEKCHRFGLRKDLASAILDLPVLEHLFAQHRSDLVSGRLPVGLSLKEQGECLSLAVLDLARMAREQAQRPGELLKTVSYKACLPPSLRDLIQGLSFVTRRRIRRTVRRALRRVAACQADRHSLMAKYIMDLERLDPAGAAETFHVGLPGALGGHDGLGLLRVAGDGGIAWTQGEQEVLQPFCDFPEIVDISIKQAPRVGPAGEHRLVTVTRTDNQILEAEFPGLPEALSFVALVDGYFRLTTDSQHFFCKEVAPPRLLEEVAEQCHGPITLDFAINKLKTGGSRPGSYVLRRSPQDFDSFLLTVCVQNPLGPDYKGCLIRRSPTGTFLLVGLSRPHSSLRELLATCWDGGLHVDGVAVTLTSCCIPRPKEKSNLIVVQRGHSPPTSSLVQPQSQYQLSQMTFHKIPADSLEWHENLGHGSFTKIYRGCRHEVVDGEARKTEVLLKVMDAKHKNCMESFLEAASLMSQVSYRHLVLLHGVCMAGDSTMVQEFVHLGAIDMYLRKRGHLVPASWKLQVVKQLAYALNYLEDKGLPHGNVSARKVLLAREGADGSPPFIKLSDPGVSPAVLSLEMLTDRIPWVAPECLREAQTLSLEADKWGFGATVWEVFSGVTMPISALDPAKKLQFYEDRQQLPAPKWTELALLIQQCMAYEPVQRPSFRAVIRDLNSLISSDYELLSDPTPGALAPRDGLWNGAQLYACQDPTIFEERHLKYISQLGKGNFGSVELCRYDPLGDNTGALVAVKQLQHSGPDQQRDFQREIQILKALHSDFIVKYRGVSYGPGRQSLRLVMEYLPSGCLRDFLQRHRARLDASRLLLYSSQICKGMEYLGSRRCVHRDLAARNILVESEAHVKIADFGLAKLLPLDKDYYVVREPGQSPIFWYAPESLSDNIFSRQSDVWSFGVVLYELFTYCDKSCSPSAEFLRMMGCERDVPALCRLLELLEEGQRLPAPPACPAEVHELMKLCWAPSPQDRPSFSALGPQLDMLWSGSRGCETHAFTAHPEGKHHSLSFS
Procedure for Aqueous Solubility Assay: Assay 5: Aqueous Solubility Assay
The purpose of this assay was to quantify the solubility of test compounds in pH 4 and pH 7.4 PBS buffers. The assay required 40 μL of 10 mM DMSO test compound solution per desired buffer in addition to 20 μL required to make a test standard. For example, to test a compound in both buffers, 100 μL (2*40 μL+20 μL) of 10 mM DMSO compound stock solution was required.
The standard was created by diluting 20 μL of 10 mM DMSO compound stock solution into 180 μL of methanol and was shaken for five minutes to ensure solution uniformity. […] This 1,000 μM solution was run on an Agilent 1260 LC-MS system by injecting 2 μL in order to obtain the peak area. For the test solutions, 40 μL of 10 mM DMSO compound stock solution, per PBS buffer condition, were dried down into a powder overnight. Once in powder form, 400 μL of the desired PBS buffer was added to the powder and allowed to shake vigorously for four hours. The maximum theoretical concentration for this sample solution was 1,000 μM. After four hours of shaking, the samples were centrifuged for 10 minutes at 3,000 RPM before injecting 2 μL on the same Agilent 1260 LC-MS system to obtain the peak area.
In Table 6 below, A represents a value above 500, B represents a value between 250 and 500, C represents a value between 50 and 250, D represents a value between 10 and 50, and E represents a value below 10.

In the case of `CCS(=O)(=O)N1[C@@H]2CCC[C@H]1C[C@H](N(C)c1nc(Nc3cc(C)[nH]n3)cc(C3CCOC(C)(C)C3)n1)C2` (stereo partly drawn) [Compound 2, 6-(2,2-dimethyltetrahydro-2H-pyran-4-yl)-N2-((1R,3s,5S)-9-(ethylsulfonyl)-9-azabicyclo[3.3.1]nonan-3-yl)-N2-methyl-N4-(5-methyl-1H-pyrazol-3-yl)pyrimidine-2,4-diamine], the “JAK 3 (pKi)” value on JAK3 is “B (B represents a pKi value between 9 and 10 (Ki between 1 nM and 0.1 nM))”. Also, in data set [1], the “Solubility in PEG400 (mg/mL)” value was “C (C represents a value below 5)”, the “Solubility in Diisopropyl adipate (mg/mL)” value is reported as “C (C represents a value below 5)”, the “Solubility in MCT (mg/mL)” value is on record as “C (C represents a value below 5)” and the “Solubility in Propylene glycol (mg/mL)” value is “C (C represents a value below 5)”. Besides, in data set [2], the “Tall-1 IL2 pSTAT5 (pIC50)” value is reported as “A (A represents a pIC50 value ≥8.0)”. Also, on JAK1, the “JAK 1 (pKi)” value was “B (B represents a pKi value between 9 and 10 (Ki between 1 nM and 0.1 nM))”. The “Solubility at PH 7.4 (μmol)” value in the data set “Aqueous Solubility Assay” is “C (C represents a value between 50 and 250)”.
Consider `COC(=O)N1[C@@H]2CCC[C@H]1C[C@H](N(C)c1nc(Nc3cc(C)[nH]n3)cc(C3CCOC3)n1)C2` (stereo partly drawn) [Compound 6, Methyl (1R,3s,5S)-3-(methyl(4-((5-methyl-1H-pyrazol-3-yl)amino)-6-(tetrahydrofuran-3-yl)pyrimidin-2-yl)amino)-9-azabicyclo[3.3.1]nonane-9-carboxylate], for which the “JAK 3 (pKi)” value at JAK3 is “C (C represents a pKi value between 8 and 9 (Ki between 10 nM and 1 nM))”. Moreover, in data set [1], the “Solubility in PEG400 (mg/mL)” value is “C (C represents a value below 5)”, the “Solubility in Diisopropyl adipate (mg/mL)” value is on record as “C (C represents a value below 5)”, the “Solubility in MCT (mg/mL)” value was “C (C represents a value below 5)” and the “Solubility in Propylene glycol (mg/mL)” value is recorded as “C (C represents a value below 5)”. Besides, in data set [2], the “Tall-1 IL2 pSTAT5 (pIC50)” value is “A (A represents a pIC50 value ≥8.0)”. In addition, the “JAK 1 (pKi)” value on JAK1 was “A (A represents a pKi value ≥10 (Ki≤0.1 nM))”. The “Solubility at PH 7.4 (μmol)” value in “Aqueous Solubility Assay” is “D (D represents a value between 10 and 50)”.
For `CCS(=O)(=O)N1[C@@H]2CCC[C@H]1C[C@H](N(C)c1nc(Nc3cc(C)[nH]n3)cc(OC3COC3)n1)C2` [Compound 34, N^2-((1R,3s,5S)-9-(ethylsulfonyl)-9-azabicyclo[3.3.1]nonan-3-yl)-N2-methyl-N4-(5-methyl-1H-pyrazol-3-yl)-6-(oxetan-3-yloxy)pyrimidine-2,4-diamine], the “JAK 3 (pKi)” value at JAK3 is “B (B represents a pKi value between 9 and 10 (Ki between 1 nM and 0.1 nM))”. Also, in data set [1], the “Solubility in PEG400 (mg/mL)” value was “C (C represents a value below 5)”, the “Solubility in Diisopropyl adipate (mg/mL)” value is “C (C represents a value below 5)”, the “Solubility in MCT (mg/mL)” value is “C (C represents a value below 5)” and the “Solubility in Propylene glycol (mg/mL)” value is listed as “C (C represents a value below 5)”. For the same compound, the “Tall-1 IL2 pSTAT5 (pIC50)” value in data set [2] is “A (A represents a pIC50 value ≥8.0)”. The “JAK 1 (pKi)” value on JAK1 was “A (A represents a pKi value ≥10 (Ki≤0.1 nM))”. Further, the “Solubility at PH 7.4 (μmol)” value in the data set “Aqueous Solubility Assay” is on record as “E (E represents a value below 10)”.
